What all share (assay): inhibition of tumour cell growth, NCI panel, 48 h
Test [1] has as its system HCC-2998 colon.
In test [2] the test system is HCT-15 colon.
For test [3], the system named is HOP-92 NSCLC.
The subject of test [4] is RPMI-8226 leukemia.
The subject of test [5] is RXF 393 renal.
The test system of test [6] is SNB-75 CNS.
For test [7], the system named is TK-10 renal.
In test [8] the test system is HCT-116 colon.
The subject of test [9] is LOX IMVI melanoma.
In test [10] the test system is SK-MEL-28 melanoma.

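Each compound was tested at five concentrations against cells in 96-well plates for 48 hours. Abbreviation: GI50, concentration required for 50% inhibition of growth. TGI marks complete inhibition of growth.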

For the compound `C[n+]1c(-c2ccc(/C=N\Nc3ccnc(N/N=C/c4ccc(-c5cn6ccsc6[n+]5C)cc4)n3)cc2)cn2ccsc21`, the TGI was 77.2 µM in test [1]; over 100 µM in test [2]; over 100 µM in test [3]; over 100 µM in [4]; 56.3 µM in test [5]; 92.1 µM in test [6]. The same compound yielded a TGI in test [7] of over 100 µM.
Regarding `O=Nn1c2ccccc2c2ccccc21`, the TGI was 60.7 µM in test [1]; over 100 µM in [8]; over 100 µM in test [2]; over 100 µM in test [3]; over 100 µM in [9]; over 100 µM in test [4]. Besides, the TGI in [5], in test [10], in [6] and in test [7] was over 100 µM in each case.
As to `CC(C)=NC(C(=O)O)C(C)(C)S` (stereo not drawn), the TGI in test [8], in test [2], in [3], in [9], in test [4] and in test [5] was over 100 µM each time. Also, the TGI in [10], in [6] and in test [7] was over 100 µM each time.
As for `CCOC(=O)CCCc1cc(=O)c2c(C)c3[nH]c4ccc(Cl)cc4c3c(C)c2[nH]1`, the TGI in test [1] was over 100 µM; in [8], over 100 µM; in test [2], over 100 µM; in test [3], 68.2 µM; in test [9] it was over 100 µM; in test [4], over 100 µM. Further, the TGI in [5] was 27.1 µM; in [10], over 100 µM; in test [6], 64 µM; in test [7], 48.8 µM.
As to `COc1ncnc2c(Cl)c(C(O)c3ccccc3)c(Cl)cc12` (stereo not drawn), the TGI is 44.1 µM in test [8]; over 100 µM in [2]; 65.4 µM in [3]; over 100 µM in [9]; 66.4 µM in [4]; 35.5 µM in [5]. The TGI in test [10] is over 100 µM; in [6], 97.8 µM; in [7] it was 63.4 µM.
On to `OCC1NC(CO)C(O)C1O` (stereo not drawn), for which the TGI in [1], in test [8], in test [2], in [3], in [9] and in test [4] was over 100 µM in each case. Moreover, the TGI in test [5], in test [10], in test [6] and in test [7] was over 100 µM in each case.
Consider `CC=C/C=C/[C@@H]1O[C@](O)([C@H](CC)C(=O)NC/C=C/C=C(\C)[C@@H](OC)[C@@H](C)[C@@H]2O[C@H](/C=C/C=C/C=C(\C)C(=O)c3c(O)cc[nH]c3=O)[C@H](O)[C@@H]2O)[C@H](O)[C@H](O)C1(C)C`, for which the TGI in test [1], in [2], in test [3], in [4], in test [10] and in [6] was over 100 µM throughout. For the same compound, the TGI in [7] is over 100 µM.
`COc1ccc(CCn2ccc(C)n2)c(OC)c1`: the TGI in test [8], in [2], in test [9], in test [5], in test [10] and in [6] was over 100 µM throughout. The TGI in [7] is over 100 µM.
On to `CC(C)N(CCNc1nc(C(Cl)(Cl)Cl)nc2cc(Cl)ccc12)C(C)C`, for which the GI50 in test [1] is 1.34 µM; in test [8], 1.31 µM; in [2], 1.12 µM; in test [3], 1.01 µM; in [4], 1.19 µM; in [5] it was 1.41 µM. For the same compound, the GI50 is 1.8 µM in [10], 1.84 µM in test [6] and 1.46 µM in [7]. Moreover, the TGI in test [1] stood at 2.86 µM; in [8] it was 2.66 µM; in [2], 2.48 µM; in test [3] it was 3.17 µM; in [4], 3.18 µM; in [5], 2.78 µM. For the same compound, the figures for the TGI in test [10], in test [6] and in test [7] were 3.38 µM, 3.84 µM and 2.88 µM, respectively.
Take `Nc1nc(N)c(N=Nc2ccccc2)c(=O)[nH]1`: the TGI in test [1], in test [8], in test [2], in test [3], in test [9] and in test [4] was over 100 µM each time. The TGI in test [10] was 87.7 µM; in test [6], 23.7 µM; in test [7], over 100 µM.
On to `O=S1(=O)C[C@H](NCc2ccccc2)[C@H](NCc2ccccc2)C1`, for which the TGI in test [1] was over 100 µM; in test [8], over 100 µM; in test [3], over 100 µM; in test [9] it was over 100 µM; in [4], 86.7 µM; in test [5], over 100 µM. Also, the TGI in [10], in test [6] and in test [7] was over 100 µM in each case.
As for `CCOP(=O)(OCC)C(Cc1c[nH]c2ccccc12)C(=O)O` (stereo not drawn), the TGI in test [1], in test [8], in [2], in test [3], in test [9] and in test [4] was over 100 µM throughout. Besides, the TGI in test [10], in test [6] and in [7] was over 100 µM in each case.
In the case of `O=C(Nc1ccc(C(F)(F)F)cc1[N+](=O)[O-])C(=O)Nn1c(=S)[nH]c2ccccc2c1=O`, the TGI in [1], in test [8], in [2], in [3], in test [9] and in test [4] was over 100 µM throughout. The TGI in test [5], in test [10], in [6] and in test [7] was over 100 µM each time.
Take `Cc1ccc(S(=O)(=O)NCCCSCCN)cc1`: the TGI in [1], in test [8], in [2], in test [3], in test [9] and in test [5] was over 100 µM throughout. Also, the TGI in test [10], in test [6] and in test [7] was over 100 µM in each case.
Turning to `COc1ccc(/C=C/c2cc(O)cc(OC3OC(CO)C(O)C(O)C3O)c2)cc1O` (stereo not drawn), the TGI in [1], in [8], in test [2], in test [3], in [9] and in test [4] was over 100 µM in each case. In addition, the TGI in [5], in test [10], in [6] and in test [7] was over 100 µM in each case.

Source of the values: PubChem BioAssay (NCI).
